Results reported in ChEMBL document CHEMBL1201862, “PubChem BioAssay data set” (2004).
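A five-concentration, 48-hour dose response in 96-well plates underlies each endpoint, interpolated linearly between surrounding concentrations. GI50: concentration for 50% inhibition of growth.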 Activity calls are given as the source filed them. Cut-off read from the data, not from the text of the source: active = GI50 up to about 1.1 µM and inactive = higher.

Columns and labels:
Assay in all cases: inhibition of tumour cell growth, NCI panel, 48 h
[1] = test system: LOX IMVI
[2] = test system: MDA-MB-435
[3] = test system: UACC-62
[4] = test system: ACHN
[5] = test system: SF-295
[6] = test system: SF-539
[7] = test system: HCC 2998
[8] = test system: NCI-H226
[9] = test system: T47D
[10] = test system: MDA-N
[11] = test system: SF-268
[12] = test system: SK-MEL-5
[13] = test system: HOP-62
[14] = test system: Hs-578T
[15] = test system: IGROV-1
[16] = test system: K562
[17] = test system: OVCAR-5
[18] = test system: MCF7
[19] = test system: U-251
[20] = test system: 786-0

SMILES | GI50 [1] | GI50 [2] | GI50 [3] | GI50 [4] | GI50 [5] | GI50 [6] | GI50 [7] | GI50 [8] | GI50 [9] | GI50 [10] | GI50 [11] | GI50 [12] | GI50 [13] | GI50 [14] | GI50 [15] | GI50 [16] | GI50 [17] | GI50 [18] | GI50 [19] | GI50 [20]
CN1CCc2cc(N)cc3c2C1Cc1ccc2c(c1-3)OCO2 (stereo not given) | 17.7 µM (inactive) | 9.59 µM (inactive) | 22.8 µM (inactive) | 26.3 µM (inactive) | 31.9 µM (inactive) | 33.9 µM (inactive) | 19.6 µM (inactive) | 34 µM (inactive) | 36.1 µM (inactive) | 19.2 µM (inactive) | 33.5 µM (inactive) | 20.4 µM (inactive) | 34.8 µM (inactive) | 28.2 µM (inactive) | 20.5 µM (inactive) | 27 µM (inactive) | 42.4 µM (inactive) | 29.4 µM (inactive) | 36.8 µM (inactive) | 26.9 µM (inactive)
COc1ccc2[nH]c3nnc(N)c-3nc2c1 | 4.11 µM (inactive) | 10.2 µM (inactive) | 7.01 µM (inactive) | 3.33 µM (inactive) | 7.66 µM (inactive) | 3.74 µM (inactive) | 14.1 µM (inactive) | 3.85 µM (inactive) | 7.5 µM (inactive) | 12 µM (inactive) | 6.21 µM (inactive) | 8.09 µM (inactive) | 6.14 µM (inactive) | 3.81 µM (inactive) | 2.59 µM (inactive) | 62.4 µM (inactive) | 7.8 µM (inactive) | 3.99 µM (inactive) | 10.6 µM (inactive) | 8.3 µM (inactive)
CC(C)Oc1cc2c(cc1O)CC[C@@H]1[C@@H]2CC[C@]2(C)[C@@H](O)CC[C@@H]12 | 4.58 µM (inactive) | 0.687 µM (active) | 2 µM (inactive) | 9.89 µM (inactive) | 3 µM (inactive) | 2.42 µM (inactive) | 5.26 µM (inactive) | 3.23 µM (inactive) | 4.68 µM (inactive) | 0.424 µM (active) | 5.93 µM (inactive) | 3.01 µM (inactive) | 4.15 µM (inactive) | 2.38 µM (inactive) | 6.14 µM (inactive) | 1.51 µM (inactive) | 27.5 µM (inactive) | 2.25 µM (inactive) | 13.3 µM (inactive) | 4.65 µM (inactive)
Cc1cc(O)c(C(C)C)cc1CN1CCCCC1 | > 100 µM (inactive) | > 100 µM (inactive) | > 100 µM (inactive) | > 100 µM (inactive) | > 100 µM (inactive) | > 100 µM (inactive) | > 100 µM (inactive) | > 100 µM (inactive) | > 100 µM (inactive) | > 100 µM (inactive) | > 100 µM (inactive) | > 100 µM (inactive) | > 100 µM (inactive) | > 100 µM (inactive) | > 100 µM (inactive) | > 100 µM (inactive) | > 100 µM (inactive) | > 100 µM (inactive) | > 100 µM (inactive) | > 100 µM (inactive)
Nc1ncn(C2OC(COP(=O)(O)O)C(O)C2O)c(=O)n1 (stereo not given) | > 100 µM (inactive) | > 53.2 µM (inactive) | > 100 µM (inactive) | 54.6 µM (inactive) | > 100 µM (inactive) | > 100 µM (inactive) | > 100 µM (inactive) | > 100 µM (inactive) | > 100 µM (inactive) | > 100 µM (inactive) | > 92 µM (inactive) | > 100 µM (inactive) | > 77.4 µM (inactive) | > 100 µM (inactive) | > 100 µM (inactive) | > 90.8 µM (inactive) | > 100 µM (inactive) | > 71 µM (inactive) | > 100 µM (inactive) | > 86.3 µM (inactive)
CCOC(=O)CCC(NC(=O)c1ccc(Nc2nc3ccc(C(F)(F)F)cc3nc2-c2ccccc2)cc1)C(=O)OCC (stereo not given) | > 42 µM (inactive) | 83 µM (inactive) | 17.3 µM (inactive) | > 73.6 µM (inactive) | > 100 µM (inactive) | 45.5 µM (inactive) | 28 µM (inactive) | > 57.3 µM (inactive) | 22.1 µM (inactive) | 19.6 µM (inactive) | 55.6 µM (inactive) | 30.4 µM (inactive) | > 100 µM (inactive) | 24.4 µM (inactive) | > 100 µM (inactive) | 44.2 µM (inactive) | > 92.9 µM (inactive) | 40.8 µM (inactive) | > 100 µM (inactive) | > 100 µM (inactive)
NCC#CCNCCCN1CC1 | > 100 µM (inactive) | > 100 µM (inactive) | > 100 µM (inactive) | > 100 µM (inactive) | > 100 µM (inactive) | > 100 µM (inactive) | > 100 µM (inactive) | > 100 µM (inactive) | > 100 µM (inactive) | > 100 µM (inactive) | > 100 µM (inactive) | > 100 µM (inactive) | > 100 µM (inactive) | > 100 µM (inactive) | > 100 µM (inactive) | > 100 µM (inactive) | > 100 µM (inactive) | > 100 µM (inactive) | > 100 µM (inactive) | > 100 µM (inactive)
CCCCCC(/C=C/[C@@H]1[C@@H](C(O)CCCCCC(=O)OC)C(=O)C[C@H]1O[Si](C)(C)C(C)(C)C)OCOCCOC (stereo not given in full) | 3.54 µM (inactive) | 8 µM (inactive) | 13.1 µM (inactive) | 15.3 µM (inactive) | 17.9 µM (inactive) | 7.11 µM (inactive) | 23 µM (inactive) | 18.2 µM (inactive) | 21.4 µM (inactive) | 8.51 µM (inactive) | 14 µM (inactive) | 14.5 µM (inactive) | 16.9 µM (inactive) | 9.84 µM (inactive) | 6.28 µM (inactive) | > 21 µM (inactive) | 21.1 µM (inactive) | 4.76 µM (inactive) | 7.26 µM (inactive) | 15.6 µM (inactive)
Nc1nc(Cl)cc(NCC2(CO)CC(CCc3ccccc3)C2)n1 (stereo not given) | 3.26 µM (inactive) | > 100 µM (inactive) | > 58.6 µM (inactive) | > 29 µM (inactive) | 5.9 µM (inactive) | > 100 µM (inactive) | > 100 µM (inactive) | > 100 µM (inactive) | 0.542 µM (active) | > 100 µM (inactive) | > 55.8 µM (inactive) | 0.506 µM (active) | > 37.6 µM (inactive) | > 59.4 µM (inactive) | > 100 µM (inactive) | 1.42 µM (inactive) | > 100 µM (inactive) | 9.16 µM (inactive) | > 100 µM (inactive) | > 71.8 µM (inactive)
